Test results from the supplement of paper PMC9663587.

What was measured:
[1] = compound: CC(=O)c1c(C)c2cnc(Nc3ccc(N4CCNCC4)cn3)nc2n(C2CCCC2)c1=O; assay: increase in dead-cell fraction, 72 h; higher = more death;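 also: breast cancer cell lines in 384-well plates, stained with Hoechst plus LIVE/DEAD far red dye and imaged, cells above an LDR intensity threshold counted dead, Hoechst-negative corpses included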
[2] = compound: CCc1cnn2c(NCc3ccc[n+]([O-])c3)cc(N3CCCC[C@H]3CCO)nc12; assay: as above
[3] = compound: CCN1CCN(Cc2ccc(Nc3ncc(F)c(-c4cc(F)c5nc(C)n(C(C)C)c5c4)n3)nc2)CC1; assay: as above
[4] = compound: CCOc1cc2ncc(C#N)c(Nc3ccc(OCc4ccccn4)c(Cl)c3)c2cc1NC(=O)/C=C/CN(C)C [Neratinib/HKI272]; assay: as above
[5] = compound: CC(=O)c1c(C)c2cnc(Nc3ccc(N4CCN(CCOCCOCCOCCNC(=O)COc5cccc6c5C(=O)N(C5CCC(=O)NC5=O)C6=O)CC4)cn3)nc2n(C2CCCC2)c1=O [BSJ-03-123]; assay: as above
[6] = compound: CN(C)C(=O)c1cc2cnc(Nc3ccc(N4CCNCC4)cn3)nc2n1C1CCCC1 [LEE011/Ribociclib]; assay: as above
[7] = compound: CN1CC[C@H](c2c(O)cc(O)c3c(=O)cc(-c4ccccc4Cl)oc23)[C@H](O)C1 [Flavopiridol]; assay: as above
[8] = compound: CN(C)C/C=C/C(=O)Nc1ccc(C(=O)Nc2cccc(Nc3ncc(Cl)c(-c4c[nH]c5ccccc45)n3)c2)cc1 [THZ1]; assay: as above
[9] = compound: COc1ccc2c(c1)[C@]1(C[C@H]1c1ccc3c(/C=C/c4ccc(CN5C[C@@H](C)O[C@@H](C)C5)cc4)n[nH]c3c1)C(=O)N2
[10] = compound: O=C(CCCCCCC(=O)Nc1ccccc1)NO [Vorinostat]
[11] = compound: CNC(=O)c1cccc(-c2ccc3c(N4CCOC[C@@H]4C)nc(N4CCOC[C@@H]4C)nc3n2)c1 [AZD2014]
[12] = compound: C[C@@H]1COCCN1c1cc(C2([S@](C)(=N)=O)CC2)nc(-c2cc[nH]c3nccc2-3)n1 [AZD6738]
[13] = compound: CCN1CCN(Cc2ccc(Nc3ncc(F)c(-c4cc(F)c5nc(C)n(C(C)C)c5c4)n3)nc2)CC1
[14] = compound: CN(C)C/C=C/C(=O)Nc1ccc(O[C@@H]2CCC[C@@H](Nc3ncc(Cl)c(-c4c[nH]c5ccccc45)n3)C2)cc1 [BSJ-01-175]
[15] = compound: CC(C)NC[C@@H](C(=O)N1CCN(c2ncnc3c2[C@H](C)C[C@H]3O)CC1)c1ccc(Cl)cc1 [Ipatasertib/GDC0068]
[16] = compound: CCC1=CN=CN=C1N2CCN(CC2)CC3=NC4=C(N3)C=C(C=C4)C(F)(F)F
[17] = compound: O=C1NC(=O)[C@@H](c2cn3c4c(cccc24)CCC3)[C@@H]1c1c[nH]c2ccccc12 [Tivantinib/ARQ197]
[18] = compound: CC(=O)Nc1cccc(-n2c(=O)n(C3CC3)c(=O)c3c(Nc4ccc(I)cc4F)n(C)c(=O)c(C)c32)c1
[19] = compound: NC(=O)Nc1cc(-c2cccc(F)c2)sc1C(=O)N[C@H]1CCCNC1 [AZD7762]
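For GR50, 72 h in this document: breast cancer and non-malignant breast epithelial cell lines, Deep Dye Drop or Dye Drop imaging, nine half-log doses, GR normalized to time-zero plates and DMSO-only controls.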

Cell Line: HCC1954
- increase in dead-cell fraction ([1]; 0.0003162 µM): -0.0089
- increase in dead-cell fraction ([1]; 0.001 µM): -0.001
- increase in dead-cell fraction ([1]; 0.003162 µM): -0.0131
- increase in dead-cell fraction ([1]; 0.01 µM): -0.0027
- increase in dead-cell fraction ([1]; 0.03162 µM): -0.0121
- increase in dead-cell fraction ([1]; 0.1 µM): -0.0026
- increase in dead-cell fraction ([1]; 0.3162 µM): -0.0021
- increase in dead-cell fraction ([1]; 1 µM): -0.0019
- increase in dead-cell fraction ([1]; 3.162 µM): 0.0043
- increase in dead-cell fraction ([2]; 0.0001 µM): -0.0062
- increase in dead-cell fraction ([2]; 0.0003162 µM): -0.012
- increase in dead-cell fraction ([2]; 0.001 µM): -0.0086
- increase in dead-cell fraction ([2]; 0.003162 µM): -0.0038
- increase in dead-cell fraction ([2]; 0.01 µM): 0.0856
- increase in dead-cell fraction ([2]; 0.03162 µM): 0.615
- increase in dead-cell fraction ([2]; 0.1 µM): 0.704
- increase in dead-cell fraction ([2]; 0.3162 µM): 0.691
- increase in dead-cell fraction ([2]; 1 µM): 0.7
- increase in dead-cell fraction ([3]; 0.001 µM): -0.0023
- increase in dead-cell fraction ([3]; 0.003162 µM): -0.0166
- increase in dead-cell fraction ([3]; 0.01 µM): -0.0193
- increase in dead-cell fraction ([3]; 0.03162 µM): -0.0017
- increase in dead-cell fraction ([3]; 0.1 µM): -0.0058
- increase in dead-cell fraction ([3]; 0.3162 µM): -0.0054
- increase in dead-cell fraction ([3]; 1 µM): 0.0303
- increase in dead-cell fraction ([3]; 3.162 µM): 0.11
- increase in dead-cell fraction ([3]; 10 µM): 0.683
- increase in dead-cell fraction ([4]; 0.0003162 µM): 0.0018
- increase in dead-cell fraction ([4]; 0.001 µM): 0.0012
- increase in dead-cell fraction ([4]; 0.003162 µM): 0.0264
- increase in dead-cell fraction ([4]; 0.01 µM): 0.0121
- increase in dead-cell fraction ([4]; 0.03162 µM): 0.0581
- increase in dead-cell fraction ([4]; 0.1 µM): 0.111
- increase in dead-cell fraction ([4]; 0.3162 µM): 0.17
- increase in dead-cell fraction ([4]; 1 µM): 0.264
- increase in dead-cell fraction ([4]; 3.162 µM): 0.42
- increase in dead-cell fraction ([5]; 0.001 µM): 0.0014
- increase in dead-cell fraction ([5]; 0.003162 µM): 0.0109
- increase in dead-cell fraction ([5]; 0.01 µM): 0.0001
- increase in dead-cell fraction ([5]; 0.03162 µM): 0.004
- increase in dead-cell fraction ([5]; 0.1 µM): 0.0138
- increase in dead-cell fraction ([5]; 0.3162 µM): 0.0101
- increase in dead-cell fraction ([5]; 1 µM): 0.0096
- increase in dead-cell fraction ([5]; 3.162 µM): 0.0252
- increase in dead-cell fraction ([5]; 10 µM): 0.141
- increase in dead-cell fraction ([6]; 0.001 µM): 0.0048
- increase in dead-cell fraction ([6]; 0.003162 µM): 0.0062
- increase in dead-cell fraction ([6]; 0.01 µM): -0.0065
- increase in dead-cell fraction ([6]; 0.03162 µM): 0.0067
- increase in dead-cell fraction ([6]; 0.1 µM): 0.006
- increase in dead-cell fraction ([6]; 0.3162 µM): 0.0179
- increase in dead-cell fraction ([6]; 1 µM): 0.0102
- increase in dead-cell fraction ([6]; 3.162 µM): 0.0144
- increase in dead-cell fraction ([6]; 10 µM): 0.0111
- increase in dead-cell fraction ([7]; 0.0001 µM): 0.0057
- increase in dead-cell fraction ([7]; 0.0003162 µM): 0.0003
- increase in dead-cell fraction ([7]; 0.001 µM): 0.0047
- increase in dead-cell fraction ([7]; 0.003162 µM): 0.0096
- increase in dead-cell fraction ([7]; 0.01 µM): 0.0025
- increase in dead-cell fraction ([7]; 0.03162 µM): 0.0079
- increase in dead-cell fraction ([7]; 0.1 µM): 0.03
- increase in dead-cell fraction ([7]; 0.3162 µM): 0.143
- increase in dead-cell fraction ([7]; 1 µM): 0.733
- increase in dead-cell fraction ([8]; 0.0001 µM): -0.0011
- increase in dead-cell fraction ([8]; 0.0003162 µM): 0.0018
- increase in dead-cell fraction ([8]; 0.001 µM): 0.0068
- increase in dead-cell fraction ([8]; 0.003162 µM): -0.0006
- increase in dead-cell fraction ([8]; 0.01 µM): -0.0054
- increase in dead-cell fraction ([8]; 0.03162 µM): 0.0087
- increase in dead-cell fraction ([8]; 0.1 µM): 0.0688
- increase in dead-cell fraction ([8]; 0.3162 µM): 0.153
- increase in dead-cell fraction ([8]; 1 µM): 0.596
- GR50, 72 h [9]: 0.00444 µM
- GR50, 72 h [10]: 1.43 µM
- GR50, 72 h [11]: 0.0484 µM
- GR50, 72 h [12]: 5.43 µM
- GR50, 72 h [13]: 0.302 µM
- GR50, 72 h [14]: 0.102 µM
- GR50, 72 h [15]: 1.43 µM
- GR50, 72 h [16]: > 10 µM
- GR50, 72 h [17]: 0.167 µM
- GR50, 72 h [18]: 0.0167 µM
- GR50, 72 h [19]: 0.127 µM
